Experimental data from US20250250303A1 (THE TRUSTEES OF COLUMBIA UNIVERSITY IN THE CITY OF NEW YORK, priority 2022, published 2025).
“Also recorded” adds a separate entry of the source. Bridge positions count the residues as written; N and C are the ends. Peptide text beside a SMILES is read from it.

Assays:
IR wild-type (WT) = biological target: T1, IR wild-type (WT) (Homo sapiens, UniProt P06213); assay: IR activation (auto-phosphorylation) assay in 293 FT cells expressing IR WT; type: cell-based
T1 construct: expressed in transfected cells; host or cells: 293 FT cells
Experimental: The insulin receptor signaling assay was performed as described earlier with some modifications. For the activation assay, the short isoform of human IR in pCS2-MYC was used as described previously. Plasmid transfections into 293 FT cells were performed with Lipofectamin™ 2000 (Invitrogen).
(§1) The cells were incubated with the lysis buffer B [50 mM Hepes pH 7.4, 150 mM NaCl, 10% Glycerol, 1% Triton X-100, 1 mM EDTA, 100 mM sodium fluoride, 2 mM sodium orthovanadate, 20 mM sodium pyrophosphate, 0.5 mM dithiothreitol (DTT), 2 mM phenylmethylsulfonyl fluoride (PMSF)] supplemented with complete Protease Inhibitor Cocktail (Roche), PhosSTOP (Sigma), and 25 U/ml turbo nuclease (Accelagen) on ice for 1 hr. After centrifuge at 20,817 g at 4° C. for 10 min, the concentrations of cell lysate were measured using Micro BCA Protein Assay Kit (Thermo Scientific). About 50-60 μg total proteins were analyzed by SDS-PAGE and quantitative Western blotting. The following antibodies were purchased from commercial sources: Anti-IR-pY1150/1151 (WB, 1:1000; 19H6; labeled as pY IR, Cat. #3024), anti-AKT (WB, 1:1000; 40D4, Cat. #2920), anti-pS473 AKT (WB, 1:1000; D9E, Cat. #4060), anti-ERK1/2 (WB, 1:1000; L34F12, Cat. #4696), anti-pERK1/2 (WB, […]; 197G2, Cat. #4377), anti-IRS1-pS616 (WB, 1:1000; C15H5, Cell Signaling, Cat. #3203); anti-IRS1 (WB, 1:1000; A301-158A, Bethyl Laboratory); anti-IR (WB, 1:500, CT-3, Santa Cruz; labeled as IR for primary hepatocytes and MEFs, Cat. #sc-57342); anti-IR (WB, 1:1000; EPR23566-103; labeled as IR for FIG. 31, ab278100, Abcam); anti-Myc (WB, 1:2000; 9E10, Cat. #11667149001, Roche; labeled as IR for 293 FT cells). For quantitative western blots, anti-rabbit immunoglobulin G (IgG) (H+L) (WB, 1:5000; Dylight 800 conjugates, Cat. #5151) and anti-mouse IgG (H+L) (WB, 1:5000; Dylight 680 conjugates, Cat. #5470) (Cell Signaling) were used as secondary antibodies. The membranes were scanned with the Odyssey Infrared Imaging System (Li—COR, Lincoln, NE).

IR F96A = biological target: T2, IR F96A (Homo sapiens, UniProt P06213, F123A); assay: IR activation assay in 293 FT cells, IR F96A mutant; type: cell-based; details: 10 nM for 10 min
T2 construct: expressed in transfected cells; host or cells: 293 FT cells

IR N15K = biological target: T3, IR N15K (Homo sapiens, UniProt P06213, N42K); assay: IR activation assay in 293 FT cells, IR N15K mutant; type: cell-based; details: 10 min
T3 construct: expressed in transfected cells; host or cells: 293 FT cells

IR signaling [1] = assay: Insulin signaling in vivo (liver, skeletal muscle, WAT lysates, western blot); parameters: species or system mice
Experimental: 2-3 months old male mice were fasted overnight. […] Livers were removed at 3 min after injection. White adipose tissue and skeletal muscles were removed at 5 min and 7 min after injection, respectively. Tissues were mixed with the lysis buffer B supplemented with complete Protease Inhibitor Cocktail (Roche), PhosSTOP (Sigma), and 25 U/ml turbo nuclease (Accelagen), homogenized with FisherbrandTM Bead Mill homogenizer, and then incubated on ice for 1 hr. After centrifuge at 20,817 g at 4° C. for 30 min, the concentrations of cell lysate were measured using Micro BCA Protein Assay Kit (Thermo Scientific). The lysates were then analyzed by quantitative western blotting.

IR signaling [2] = assay: IR signaling in primary mouse hepatocytes; type: cell-based
Experimental: Primary hepatocytes were isolated from 2-month-old male mice with a standard two-step collagenase perfusion procedure as described earlier with some modifications. […] After 1-2 sec upon appearance of white spots in the liver, the portal vein was cut with scissors to wash out blood, and then the liver was perfused with 30 ml of Liver Digest Medium (Thermo Scientific, Cat. #17703034). Dissected liver was gently washed with low glucose DMEM and transferred to sterile culture dish containing 15 ml Liver Digest Medium. The isolated liver cells were filtered through the 70 μm cell strainer into a 50 ml tube. After centrifuge at 50 g for 5 min at 4° C., cells were washed with cold low glucose DMEM three times. […] After 2 hr., the medium was changed to serum free low-glucose DMEM.
as §1

MCF7 = assay: Cancer cell proliferation, MCF7; type: cell-based
T47D = assay: Cancer cell proliferation, T47D; type: cell-based
CAL33 = assay: Cancer cell proliferation, CAL33; type: cell-based
IR = IR (Mus musculus, UniProt P15208); assay: Insulin receptor endocytosis in vivo (liver sections); parameters: from tissue; host or cells: liver of C57BL/6J mice; species or system mice
Experimental: For IR endocytosis assays, the livers were fixed in 10% Neutral Buffered Formalin (NBF) and embedded in paraffin blocks. Sections were deparaffinized, subjected to immunohistochemistry as described in the immunohistochemistry section and previous study.
The immunohistochemistry was performed as described earlier with some modifications. Mouse tissues were fixed in 10% NBF and embedded in paraffin blocks by the Molecular Pathology Core at Columbia University. The deparaffinized sections were subjected to antigen retrieval with 10 mM sodium citrate (pH 6.0), incubated with 0.3% H2O2, blocked with 3% bovine serum albumin (BSA), and then incubated with anti-IR antibodies (CT-3, Millipore, Cat. #MABS65, 1:100) in 3% BSA in PBS with 0.1% Triton X-100 (0.1% PBST) at 4° C. overnight. The slides were washed and incubated with secondary antibodies (Alexa Fluor 568 donkey anti-mouse, Invitrogen, Cat. #A10037, 1:200). The washed slides were stained with 4′,6′-diamidino-2-phenylindole (DAPI). Ten images were randomly taken under x60 magnification with a Leica Thunder Imager (Leica Microsystems Inc.). Images of sections were acquired as series of 0.2 μm stacks. The cell edges were defined with Image J as described earlier. The whole cell signal intensity (WC) and intracell cellular intensity (IC) were measured. The plasma membrane signal intensity (PM) was calculated by subtracting IC from WC. […]

[3] = WAT, compared to vehicle treated conditions
[4] = liver, injection via inferior vena cava
[5] = skeletal muscle, injection via inferior vena cava

T1 sequence (P06213 28-1370 isoform P06213-2 limits assumed): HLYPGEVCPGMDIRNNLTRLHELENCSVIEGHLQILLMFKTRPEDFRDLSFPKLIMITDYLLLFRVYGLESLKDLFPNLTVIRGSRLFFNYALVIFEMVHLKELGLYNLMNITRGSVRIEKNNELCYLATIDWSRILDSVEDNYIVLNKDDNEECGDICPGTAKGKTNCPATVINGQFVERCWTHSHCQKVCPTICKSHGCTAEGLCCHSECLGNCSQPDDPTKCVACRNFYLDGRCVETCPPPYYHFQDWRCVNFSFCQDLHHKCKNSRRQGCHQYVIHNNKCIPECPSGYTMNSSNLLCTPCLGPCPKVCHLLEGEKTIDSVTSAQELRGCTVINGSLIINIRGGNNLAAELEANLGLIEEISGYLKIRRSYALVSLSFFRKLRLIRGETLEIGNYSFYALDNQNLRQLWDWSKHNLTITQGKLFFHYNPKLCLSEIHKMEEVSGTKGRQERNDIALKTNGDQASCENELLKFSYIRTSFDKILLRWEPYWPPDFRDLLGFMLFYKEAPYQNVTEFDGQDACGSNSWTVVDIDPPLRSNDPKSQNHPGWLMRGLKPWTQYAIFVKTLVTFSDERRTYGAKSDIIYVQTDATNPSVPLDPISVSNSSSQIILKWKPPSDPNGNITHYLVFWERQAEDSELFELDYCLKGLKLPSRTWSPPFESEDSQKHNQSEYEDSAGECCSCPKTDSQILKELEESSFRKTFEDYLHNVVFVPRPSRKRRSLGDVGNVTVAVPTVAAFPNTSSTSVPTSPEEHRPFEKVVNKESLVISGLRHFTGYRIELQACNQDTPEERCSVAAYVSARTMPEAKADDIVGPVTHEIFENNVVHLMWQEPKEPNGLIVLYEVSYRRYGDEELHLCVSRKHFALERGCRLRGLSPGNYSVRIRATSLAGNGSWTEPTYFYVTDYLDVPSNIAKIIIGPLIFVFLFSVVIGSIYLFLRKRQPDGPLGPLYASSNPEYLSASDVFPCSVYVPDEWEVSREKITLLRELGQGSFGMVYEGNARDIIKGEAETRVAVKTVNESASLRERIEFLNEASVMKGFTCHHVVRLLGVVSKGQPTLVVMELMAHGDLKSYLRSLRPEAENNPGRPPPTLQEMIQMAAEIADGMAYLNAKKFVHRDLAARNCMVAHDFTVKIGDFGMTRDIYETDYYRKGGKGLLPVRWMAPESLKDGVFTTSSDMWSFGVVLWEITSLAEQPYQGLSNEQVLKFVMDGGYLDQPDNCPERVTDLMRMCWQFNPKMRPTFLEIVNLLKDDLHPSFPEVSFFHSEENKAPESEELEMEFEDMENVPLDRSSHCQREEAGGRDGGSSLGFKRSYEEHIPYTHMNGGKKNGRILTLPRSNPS
T1 sequence (P06213 763-1382 partner limits assumed): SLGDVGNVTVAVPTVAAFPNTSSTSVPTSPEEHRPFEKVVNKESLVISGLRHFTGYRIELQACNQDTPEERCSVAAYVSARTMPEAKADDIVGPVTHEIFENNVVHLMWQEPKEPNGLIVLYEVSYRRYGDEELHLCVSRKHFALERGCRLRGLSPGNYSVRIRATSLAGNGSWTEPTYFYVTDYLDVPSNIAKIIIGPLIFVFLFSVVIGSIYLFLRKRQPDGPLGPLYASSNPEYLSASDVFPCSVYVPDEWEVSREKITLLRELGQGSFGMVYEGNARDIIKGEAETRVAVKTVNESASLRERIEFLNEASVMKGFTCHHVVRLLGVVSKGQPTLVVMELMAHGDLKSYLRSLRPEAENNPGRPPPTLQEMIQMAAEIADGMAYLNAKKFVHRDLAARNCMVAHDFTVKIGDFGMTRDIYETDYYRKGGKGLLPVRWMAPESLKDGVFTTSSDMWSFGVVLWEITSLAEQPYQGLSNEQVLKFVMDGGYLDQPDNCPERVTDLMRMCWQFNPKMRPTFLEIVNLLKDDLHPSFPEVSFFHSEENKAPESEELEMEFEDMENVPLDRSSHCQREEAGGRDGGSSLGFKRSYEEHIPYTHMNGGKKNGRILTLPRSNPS
T3 sequence (P06213 28-1370 isoform P06213-2 N42K limits assumed): as the sequence (P06213 28-1370 isoform P06213-2 limits assumed) above, with N15K counted along it
T3 sequence (P06213 763-1382 partner limits assumed): as the sequence (P06213 763-1382 partner limits assumed) above
Sequence of IR (P15208 28-748 limits assumed): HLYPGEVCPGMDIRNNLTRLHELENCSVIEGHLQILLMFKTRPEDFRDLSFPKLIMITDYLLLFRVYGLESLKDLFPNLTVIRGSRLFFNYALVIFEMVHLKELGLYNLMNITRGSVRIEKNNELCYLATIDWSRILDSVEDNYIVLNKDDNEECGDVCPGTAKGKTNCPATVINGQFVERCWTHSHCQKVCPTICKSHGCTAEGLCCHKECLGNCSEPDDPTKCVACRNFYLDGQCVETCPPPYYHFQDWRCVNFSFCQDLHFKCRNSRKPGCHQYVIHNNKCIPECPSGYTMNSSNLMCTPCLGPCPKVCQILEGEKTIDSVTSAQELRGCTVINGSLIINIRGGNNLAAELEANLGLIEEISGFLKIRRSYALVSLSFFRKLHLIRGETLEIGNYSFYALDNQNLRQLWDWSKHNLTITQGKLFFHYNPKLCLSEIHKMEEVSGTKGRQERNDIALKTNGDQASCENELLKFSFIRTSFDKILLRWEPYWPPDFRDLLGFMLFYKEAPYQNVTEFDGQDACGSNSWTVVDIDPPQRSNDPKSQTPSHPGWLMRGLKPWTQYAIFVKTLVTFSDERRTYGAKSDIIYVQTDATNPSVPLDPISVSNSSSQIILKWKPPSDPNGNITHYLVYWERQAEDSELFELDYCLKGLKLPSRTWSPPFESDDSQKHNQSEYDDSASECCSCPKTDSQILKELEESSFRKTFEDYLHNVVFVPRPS
Sequence of IR (P15208 753-1372 partner limits assumed): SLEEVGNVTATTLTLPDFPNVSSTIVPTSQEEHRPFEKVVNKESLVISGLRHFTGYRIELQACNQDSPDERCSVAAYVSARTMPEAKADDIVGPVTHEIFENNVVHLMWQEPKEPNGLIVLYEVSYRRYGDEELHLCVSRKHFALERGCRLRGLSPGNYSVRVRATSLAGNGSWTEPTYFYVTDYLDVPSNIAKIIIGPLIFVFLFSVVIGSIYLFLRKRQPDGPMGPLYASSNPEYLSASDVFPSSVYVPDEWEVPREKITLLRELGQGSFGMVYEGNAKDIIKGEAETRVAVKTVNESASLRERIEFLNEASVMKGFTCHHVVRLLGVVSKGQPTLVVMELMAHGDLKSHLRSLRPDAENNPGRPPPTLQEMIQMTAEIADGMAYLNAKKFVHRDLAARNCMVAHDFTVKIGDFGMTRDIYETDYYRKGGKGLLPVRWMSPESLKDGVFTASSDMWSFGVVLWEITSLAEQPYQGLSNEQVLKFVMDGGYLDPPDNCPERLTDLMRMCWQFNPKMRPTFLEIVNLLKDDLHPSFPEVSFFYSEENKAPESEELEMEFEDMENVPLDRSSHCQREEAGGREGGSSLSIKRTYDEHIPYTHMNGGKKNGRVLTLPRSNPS
T2 sequence (P06213 28-1370 isoform P06213-2 F123A limits assumed): as the sequence (P06213 28-1370 isoform P06213-2 limits assumed) above, with F96A counted along it
T2 sequence (P06213 763-1382 partner limits assumed): as the sequence (P06213 763-1382 partner limits assumed) above

`CC[C@H](C)[C@H](NC(=O)[C@H](CCC(N)=O)NC(=O)[C@H](C)NC(=O)[C@H](Cc1c[nH]c2ccccc12)NC(=O)[C@H](CCC(=O)O)NC(=O)[C@H](CCC(=O)O)NC(=O)[C@H](CCC(=O)O)NC(=O)[C@H](CC(C)C)NC(=O)[C@H](CO)NC(C)=O)C(=O)N[C@@H](CCC(=O)O)C(=O)N[C@H]1CSSC[C@@H](C(=O)N2CCC[C@H]2C(=O)N[C@@H](CO)C(=O)N[C@@H](CCC(=O)O)C(=O)N[C@@H](CO)C(=O)N[C@@H](Cc2ccccc2)C(=O)N[C@@H](Cc2ccc(O)cc2)C(=O)N[C@@H](CC(=O)O)C(=O)N[C@@H](Cc2c[nH]c3ccccc23)C(=O)N[C@@H](Cc2ccccc2)C(=O)N[C@@H](CCC(=O)O)C(=O)N[C@@H](CCCNC(=N)N)C(=O)N[C@@H](CCC(N)=O)C(=O)N[C@@H](CC(C)C)C(N)=O)NC(=O)CNC(=O)[C@H](CCCNC(=N)N)NC(=O)CNC(=O)[C@H](Cc2ccc(O)cc2)NC(=O)[C@H](C(C)C)NC(=O)[C@H](CCC(=O)O)NC1=O` [S597] (Ac-SLEEEWAQIECEVYGRGCPSESFYDWFERQL-NH2; disulfide 11-18) was tested, and the “IR activation (auto-phosphorylation of IR, pY IR)” value (IR wild-type (WT); 293 FT cells expressing IR WT, 10 nM for 10 min) was “as efficiently as insulin”, the “difference between the A and B isoforms of IR activation” value (IR wild-type (WT); 293 FT cells expressing IR-A or IR-B, 10 min) was “no significant difference” and the “IR activation (pY IR)” value (IR F96A) was “great deficiency”. The “IR activation (pY IR)” value (IR N15K) was “fully activated”, the pAKT level (IR signaling [1]; [3]) was “significantly increased” and the pERK level (IR signaling [1]; [3]) was “neither insulin nor S597 had a statistically significant effect”. The “pY IR level” value (IR signaling [1]; WAT, injection via inferior vena cava) was “robust auto-phosphorylation of the IR, albeit with lower potency than insulin”, the pERK level (IR signaling [1]; [4]) was “increased” and the “pY IR level” value (IR signaling [1]; [4]) was “robust auto-phosphorylation of the IR, albeit with lower potency than insulin”. The pAKT level (IR signaling [1]; [5]) was “significantly increased”, the pERK level (IR signaling [1]; [5]) was “less potent; also recorded: not in the skeletal muscle” and the “pY IR level” value (IR signaling [1]; [5]) was “significantly increased”. For the same compound, the pAKT (IR signaling [2]) was “increased”, the pERK (IR signaling [2]) was “increased” and the “pY IR” value (IR signaling [2]) was “increased”. For the same compound, the cell proliferation (MCF7) was “did not promote”, the cell proliferation (T47D) was “did not promote” and the cell proliferation (CAL33) was “did not promote”. The “IR endocytosis / internalization” value (IR) was “promoted IR internalization”.
